Laboratory results as given in patent publication US11207325B2, “Triazolopyrimidine compounds and uses thereof” (Novartis AG, priority 2014, dated 2021).

System: H3K27 methylation in G401 cell
Experiment: ELISA (H3K27 methylation) assay
Assay type: cell-based
Settings: Homo sapiens, G-401; ELISA Qualified assay (H3K27 methylation); read-out: (c) IC50 (μM), ELISA Qualified
Excerpt: ELISA (H3K27 Methylation) Assay

N#Cc1ccccc1-c1cnc(NCc2c(F)ccc3c2CCO3)n2cnnc12 [Example 121, 2-(5-(((5-fluoro-2,3-dihydrobenzofuran-4-yl)methyl)amino)-[1,2,4]triazolo[4,3-c]pyrimidin-8-yl)-benzonitrile]
IC50: 0.0142 µM

Cn1cc(-c2cnc(NCc3c(F)ccc4c3CCO4)n3cnnc23)c(C(F)(F)F)n1 [Example 170, N-((5-fluoro-2,3-dihydrobenzofuran-4-yl)methyl)-8-(1-methyl-3-(trifluoromethyl)-1H-pyrazol-4-yl)-[1,2,4]triazolo[4,3-c]pyrimidin-5-amine]
IC50: 0.0232 µM

Nc1ccc(-c2cnc(NCc3cccc4c3CCO4)n3cnnc23)cn1 [Example 48, 8-(6-aminopyridin-3-yl)-N-((2,3-dihydrobenzofuran-4-yl)methyl)-[1,2,4]triazolo[4,3-c]pyrimidin-5-amine]
IC50: 0.261 µM

CS(=O)(=O)CCOc1ccc(-c2cnc(NCc3cccc4c3CCO4)n3cnnc23)cc1 [Example 75, N-((2,3-dihydrobenzofuran-4-yl)methyl)-8-(4-(2-(methylsulfonyl)ethoxy)phenyl)-[1,2,4]triazolo[4,3-c]pyrimidin-5-amine]
IC50: 0.298 µM

Cc1cc(-c2cnc(NCc3c(F)ccc4c3CCO4)n3cnnc23)c(C)cn1 [Example 194, 8-(2,5-dimethylpyridin-4-yl)-N-((5-fluoro-2,3-dihydrobenzofuran-4-yl)methyl)-[1,2,4]triazolo[4,3-c]pyrimidin-5-amine]
IC50: 0.0241 µM

CS(=O)(=O)Nc1ccc(-c2cnc(NCc3cccc4c3CCO4)n3cnnc23)cc1F [Example 33, N-(4-(5-(((2,3-dihydrobenzofuran-4-yl)methyl)amino)-[1,2,4]triazolo[4,3-c]pyrimidin-8-yl)-2-fluorophenyl)methanesulfonamide]
IC50: 0.297 µM

CC(c1ccc(-c2cnc(NCc3c(F)ccc4c3CCO4)n3cnnc23)cc1)N1CCCC1 (stereo not drawn) [Example 46, N-((5-fluoro-2,3-dihydrobenzofuran-4-yl)methyl)-8-(4-(1-(pyrrolidin-1-yl)ethyl)phenyl)-[1,2,4]triazolo[4,3-c]pyrimidin-5-amine]
IC50: 0.0048 µM

Cc1cn(-c2cnc(NCc3c(F)ccc4c3CCO4)n3cnnc23)c(C)n1 [Example 236, 8-(2,4-dimethyl-1H-imidazol-1-yl)-N-((5-fluoro-2,3-dihydrobenzofuran-4-yl)methyl)-[1,2,4]triazolo[4,3-c]pyrimidin-5-amine]
IC50: 0.0076 µM

CC(C)n1cc(-c2cnc(NCc3c(F)ccc4c3CCO4)n3cnnc23)c(C(F)(F)F)n1 [Example 148, N-((5-fluoro-2,3-dihydrobenzofuran-4-yl)methyl)-8-(1-isopropyl-3-(trifluoromethyl)-1H-pyrazol-4-yl)-[1,2,4]triazolo[4,3-c]pyrimidin-5-amine]
IC50: 0.0252 µM

Cn1ncc(-c2cnc(NCc3c(F)ccc4c3CCO4)n3cnnc23)c1CO [Example 227, (4-(5-(((5-fluoro-2,3-dihydrobenzofuran-4-yl)methyl)amino)-[1,2,4]triazolo[4,3-c]pyrimidin-8-yl)-1-methyl-1H-pyrazol-5-yl)methanol]
IC50: 0.0091 µM

CN(C)Cc1ccc(-c2cnc(NCc3c(F)ccc4c3CCO4)n3cnnc23)cc1 [Example 23, 8-(4-((dimethylamino)methyl)phenyl)-N-((5-fluoro-2,3-dihydrobenzofuran-4-yl)methyl)-[1,2,4]triazolo[4,3-c]pyrimidin-5-amine]
IC50: 0.0424 µM

Cc1nn(CCO)c(C)c1-c1cnc(NCc2cccc3c2CCO3)n2cnnc12 [Example 67, 2-(4-(5-(((2,3-dihydrobenzofuran-4-yl)methyl)amino)-[1,2,4]triazolo[4,3-c]pyrimidin-8-yl)-3,5-dimethyl-1H-pyrazol-1-yl)ethanol]
IC50: 0.521 µM

OCCOc1ccc(-c2cnc(NCc3cccc4c3CCO4)n3cnnc23)cc1 [Example 38, 2-(4-(5-(((2,3-dihydrobenzofuran-4-yl)methyl)amino)-[1,2,4]triazolo[4,3-c]pyrimidin-8-yl)phenoxy)ethanol]
IC50: 0.202 µM

Cn1cc(-c2cnc(NCc3cccc4c3CCO4)n3cnnc23)cn1 [Example 25, N-((2,3-dihydrobenzofuran-4-yl)methyl)-8-(1-methyl-1H-pyrazol-4-yl)-[1,2,4]triazolo[4,3-c]pyrimidin-5-amine]
IC50: 0.406 µM

Cc1ccc(-c2cnc(NCc3c(F)ccc4c3CCO4)n3cnnc23)c(C)n1 [Example 167, 8-(2,6-dimethylpyridin-3-yl)-N-((5-fluoro-2,3-dihydrobenzofuran-4-yl)methyl)-[1,2,4]triazolo[4,3-c]pyrimidin-5-amine]
IC50: 0.0393 µM

Cc1cc(C#N)ccc1-c1cnc(NCc2c(F)ccc3c2CCO3)n2cnnc12 [Example 178, 4-(5-(((5-fluoro-2,3-dihydrobenzofuran-4-yl)methyl)amino)-[1,2,4]triazolo[4,3-c]pyrimidin-8-yl)-3-methylbenzonitrile]
IC50: 0.0114 µM

CN(C)C(=O)CCc1ccc(-c2cnc(NCc3cccc4c3CCO4)n3cnnc23)cn1 [Example 135, 3-(5-(5-(((2,3-dihydrobenzofuran-4-yl)methyl)amino)-[1,2,4]triazolo[4,3-c]pyrimidin-8-yl)pyridin-2-yl)-N,N-dimethylpropanamide]
IC50: 0.321 µM

CN(C)C(=O)c1cccc(-c2cnc(NCc3cccc4c3CCO4)n3cnnc23)c1 [Example 43, 3-(5-(((2,3-dihydrobenzofuran-4-yl)methyl)amino)-[1,2,4]triazolo[4,3-c]pyrimidin-8-yl)-N,N-dimethylbenzamide]
IC50: 0.247 µM

c1cc(CNc2ncc(-c3ccc(N4CCSCC4)nc3)c3nncn23)c2c(c1)OCC2 [Example 81, N-((2,3-dihydrobenzofuran-4-yl)methyl)-8-(6-thiomorpholinopyridin-3-yl)-[1,2,4]triazolo[4,3-c]pyrimidin-5-amine]
IC50: 0.155 µM

CN(C)c1ncc(-c2cnc(NCc3cccc4c3CCO4)n3cnnc23)cn1 [Example 88, N-((2,3-dihydrobenzofuran-4-yl)methyl)-8-(2-(dimethylamino)pyrimidin-5-yl)-[1,2,4]triazolo[4,3-c]pyrimidin-5-amine]
IC50: 0.238 µM

CCOc1ncc(-c2cnc(NCc3c(F)ccc4c3CCO4)n3cnnc23)c(C)n1 [Example 226, 8-(2-ethoxy-4-methylpyrimidin-5-yl)-N-((5-fluoro-2,3-dihydrobenzofuran-4-yl)methyl)-[1,2,4]triazolo[4,3-c]pyrimidin-5-amine]
IC50: 0.0061 µM

Cc1nn(C(C)C)c(C)c1-c1cnc(NCc2cccc3c2CCO3)n2cnnc12 [Example 153, N-((2,3-dihydrobenzofuran-4-yl)methyl)-8-(1-isopropyl-3,5-dimethyl-1H-pyrazol-4-yl)-[1,2,4]triazolo[4,3-c]pyrimidin-5-amine]
IC50: 0.0073 µM

CC1(C)COC(c2cncc(-c3cnc(NCc4cccc5c4CCO5)n4cnnc34)c2)=N1 [Example 90, N-((2,3-dihydrobenzofuran-4-yl)methyl)-8-(5-(4,4-dimethyl-4,5-dihydrooxazol-2-yl)pyridin-3-yl)-[1,2,4]triazolo[4,3-c]pyrimidin-5-amine]
IC50: 0.675 µM

CS(=O)(=O)c1ccc(-c2cnc(NCc3cccc4c3CCO4)n3cnnc23)cc1 [Example 12, N-((2,3-dihydrobenzofuran-4-yl)methyl)-8-(4-(methylsulfonyl)phenyl)-[1,2,4]triazolo[4,3-c]pyrimidin-5-amine]
IC50: 0.0176 µM

CN(C)c1cc(F)c(-c2cnc(NCc3cccc4c3CCO4)n3cnnc23)cn1 [Example 112, N-((2,3-dihydrobenzofuran-4-yl)methyl)-8-(6-(dimethylamino)-4-fluoropyridin-3-yl)-[1,2,4]triazolo[4,3-c]pyrimidin-5-amine]
IC50: 0.389 µM

Cn1nccc1-c1cnc(NCc2cccc3c2CCO3)n2cnnc12 [Example 152, N-((2,3-dihydrobenzofuran-4-yl)methyl)-8-(1-methyl-1H-pyrazol-5-yl)-[1,2,4]triazolo[4,3-c]pyrimidin-5-amine]
IC50: 0.008 µM

Fc1ccc2c(c1CNc1ncc(-c3ccccn3)c3nncn13)CCO2 [Example 231, N-((5-fluoro-2,3-dihydrobenzofuran-4-yl)methyl)-8-(pyridin-2-yl)-[1,2,4]triazolo[4,3-c]pyrimidin-5-amine]
IC50: 0.0358 µM

Cc1c(-c2cnc(NCc3c(F)ccc4c3CCO4)n3cnnc23)cnn1CCO [Example 189, 2-(4-(5-(((5-fluoro-2,3-dihydrobenzofuran-4-yl)methyl)amino)-[1,2,4]triazolo[4,3-c]pyrimidin-8-yl)-5-methyl-1H-pyrazol-1-yl)ethanol]
IC50: 0.0052 µM

O=C1CN(c2ccc(-c3cnc(NCc4cccc5c4CCO5)n4cnnc34)cn2)CCN1 [Example 104, 4-(5-(5-(((2,3-dihydrobenzofuran-4-yl)methyl)amino)-[1,2,4]triazolo[4,3-c]pyrimidin-8-yl)pyridin-2-yl)piperazin-2-one]
IC50: 2.33 µM

CC(C)(O)c1ccc(-c2cnc(NCc3cccc4c3CCO4)n3cnnc23)cn1 [Example 99, 2-(5-(5-(((2,3-dihydrobenzofuran-4-yl)methyl)amino)-[1,2,4]triazolo[4,3-c]pyrimidin-8-yl)pyridin-2-yl)propan-2-ol]
IC50: 0.107 µM

COCCn1nc(C)c(-c2cnc(NCc3cccc4c3CCO4)n3cnnc23)c1C [Example 66, N-((2,3-dihydrobenzofuran-4-yl)methyl)-8-(1-(2-methoxyethyl)-3,5-dimethyl-1H-pyrazol-4-yl)-[1,2,4]triazolo[4,3-c]pyrimidin-5-amine]
IC50: 0.0803 µM

Cc1c(-c2cnc(NCc3c(F)ccc4c3C(O)CO4)n3cnnc23)ccc[n+]1[O-] (stereo not drawn) [Example 244, 3-(5-(((5-fluoro-3-hydroxy-2,3-dihydrobenzofuran-4-yl)methyl)amino)-[1,2,4]triazolo[4,3-c]pyrimidin-8-yl)-2-methylpyridine 1-oxide]
IC50: 0.241 µM

O=CN1CCN(CCc2ccc(-c3cnc(NCc4cccc5c4CCO5)n4cnnc34)cn2)CC1 [Example 107, 4-(2-(5-(5-(((2,3-dihydrobenzofuran-4-yl)methyl)amino)-[1,2,4]triazolo[4,3-c]pyrimidin-8-yl)pyridin-2-yl)ethyl)piperazine-1-carbaldehyde]
IC50: 0.161 µM
